From patent US5616618A, “Threo-3-(3,4-dihydroxyphenyl)serine analgesic composition” (priority 1993, dated 1997)
“Also recorded” adds a separate entry of the source.

What was measured:
mice [1] = test: Effect of benserazide on L-threo-DOPS antinociception, tail flick test; type: in vivo; conditions: L-threo-DOPS 400 mg/kg s.c., 60 minutes
Method: Effect of Benserazide (Peripheral Nerve Decarboxylase Inhibitor) on the Antinociceptive Action of L-threo-DOPS
Benserazide was administered subcutaneously in a dose of 1 mg/kg, 60 minutes before the subcutainious administration of L-threo-DOPS (400 mg/kg). Alternatively, benserazide was administered intracerebralventricularly at a dose of 25 μg/mouse, 30 minutes before L-threo-DOPS was subcutaneously administered in a dose of 400 mg/kg. The effect of benserazide on the L-threo-DOPS-induced antinociceptive action 60 minutes after the L-threo-DOPS administration was examined according to the tail flick test.
(§1) The results obtained in this test are all shown by means ±standard error. Statistically significant difference between the groups was determined by Student's t-test or Newman-Keuls test. When P<0.05, the difference was judged to be significant.
The results in FIG. 6 indicate change in latency (Δ latency, second) 60 minutes after the L-threo-DOPS administration. […] The symbol V denotes the group administered with vehicle only, and the symbol N.S. denotes that there is no significant difference as compared to the control group.

mice [2] = test: Effect of naloxone on L-threo-DOPS antinociception, kaolin-induced writhing test; type: in vivo; conditions: L-threo-DOPS 400 mg/kg; naloxone 0.01 mg/kg s.c.; 60 minutes
Method: (§2) Antagonistic Effect of L-threo-DOPS Antinociceptive Action on Naloxone (Morphine Antagonist)
(§3) Tests were conducted in the same way as the tail flick test method and the kaolin-induced writhing test method in Test Example 1 described above. In the tail flick test method, however, 1 mg/kg of naloxone was subcutaneously administered 40 minutes after administration of 400 mg/kg of L-threo-DOPS, and the latency was measured 60 minutes after the 400 mg/kg L-threo-DOPS administration. The obtained data are shown in terms of change in latency (Δ latency). In the kaolin-induced writhing test, 0.01 mg/kg of naloxone was subcutaneously administered 55 minutes after administration of 400 mg/kg of L-threo-DOPS, and kaolin was administered 5 minutes after the administration of naloxone.
(§4) The results obtained in the tests are all shown by means ±standard error. Statistically significant difference between the groups was determined by Student's t-test or Newman-Keuls test. When P<0.05, the difference was judged to be significant.
(§5) The symbol V denotes the group administered with vehicle only, and the symbol N.S. denotes that there is no significant difference as compared to the control group.

mice [3] = test: Tail flick test, subcutaneous L-threo-DOPS; type: in vivo
Method: Thermal stimulation at a certain level was given onto mice at the tail, and the latency until the animal flicked the tail out of the thermal stimulation was measured. The analgesic effect was judged in terms of prolonged latency by administration of a drug (tail-flick test, see European Journal of Pharmacology, 212, 1992).
The test was conducted by using a tail flick analgesia meter (MK-330, Muromachi Kikai). The intensity of the beam was adjusted to produce a control latency of 2 to 2.5 seconds, and a cut-off time was set to be 8 seconds. The experimental data obtained were shown in terms of latency (second).
L-Threo-DOPS was suspended in a 0.2% Tween 80 solution and the resulting suspension was subcutaneously administered in a dose of 100 to 400 mg/kg. The tail flick latency was then measured with passage of time to determine antinociceptive action, namely, analgesic activity.
(§6) In the left graph, the symbol .largecircle. denotes the group administered with vehicle only (n=8), and the symbol .circle-solid. denotes the group administered with L-threo-DOPS (n=5). […] In the right graph, the symbol V denotes the group administered with vehicle only. *P<0.05, **P<0.01 (when compared to the group administered with vehicle only).
(§7) The results obtained in the respective tests are all shown by means ±standard error. Statistically significant difference between the groups was determined by Student's t-test or Newman-Keuls test. When P<0.05, the difference was judged to be significant.

mice [4] = test: Kaolin-induced writhing test; type: in vivo
From the text: (§8) Mice were used for the kaolin-induced writhing test and the formalin test, wherein animal model for assessment of chronic pain is used [Pain, 51, 195-198 (1992)].
b) Kaolin-Induced Writhing Test
The test was proposed by Fujiyoshi, T. et al. as a nociceptive test for the assessment of endogenous bradykinin-induced pain [Fujiyoshi et al., Agents and Actions, 27, 332 (1989)]. In the present invention, a method somewhat modified from the Fujiyoshi test was used for the assessment. That is, a suspension of 125 mg/kg of kaolin in 0.2% Tween 80 solution was intraperitoneally administered to mice in a dose of 0.25 ml/10 g. Immediately thereafter, the total number of writhing reactions which were observed during 20 minutes was counted.
Thirty minutes, 1 hour and 2 hours before administration of kaolin, L-threo-DOPS was subcutaneously administered in a dose ranging from 100 to 400 mg/kg.
as §6, with “only,” for “only (n=8),”, “L-threo-DOPS.” for “L-threo-DOPS (n=5).”, “The” for “In the right graph, the”, “only (n=5). **P<0.01, ***P<0.001” for “only. *P<0.05, **P<0.01”
as §7

mice [5] = test: Tail flick test, oral L-threo-DOPS; type: in vivo
Method: Antinociceptive Action of L-threo-DOPS by Oral Administration
L-Threo-DOPS was orally administered to mice in doses of 200, 400 and 800 mg/kg, and was examined for the antinociceptive action according to the tail flick test method.
as §1
The results in FIG. 7 indicate, in the tail flick test, a relationship between the dose of L-threo-DOPS when orally administered and change in latency (Δ latency, second) 60 minutes after the L-threo-DOPS administration (n=6). *P<0.05, **P<0.01 (as compared to the control group).

mice [6] = test: Effect of phentolamine on L-threo-DOPS antinociception, tail flick test; type: in vivo
Method: Effect of Phentolamine as an α-Adrenaline Receptor Blocker on the Antinociceptive Action of L-threo-DOPS
Phentolamine was administered intracerebral-ventricularly (i.c.v.) or intrathecaly (i.th.) in a dose of 0.1 to 1 μg/mouse, 40 minutes after L-threo-DOPS was administered in a dose of 400 mg/kg. Then, the effect of phentolamine against L-threo-DOPS-induced antinociceptive action was determined in the tail flick test.
Statistically significant difference between the groups was determined by Student's t-test or Newman-Keuls test. When P<0.05, the difference was judged to be significant.
The results in FIG. 5 indicates change in latency (Δ latency, second) 60 minutes after the L-threo-DOPS administration.

mice [7] = test: Effect of naloxone on L-threo-DOPS antinociception, tail flick test; type: in vivo; conditions: for type of analgesic activity: from naloxone tests (tail flick and kaolin)
Method: as §2, §3, §4, §5

mice [8] = test: Formalin-induced nociceptive test; type: in vivo
Method: as §8
c) Formalin-Induced Nociceptive Test
Formalin (0.5%, 25 μl) was administered subcutaneously into a mouse at the sole of the right hind paw. Immediately thereafter, the time required for the mouse to conduct licking or biting behavior was counted for 30 minutes at intervals of 5 minutes. The results are shown separately for Phase I (0-5 minutes after the formalin administration) and Phase II (10-30 minutes after the formalin administration). […]
The symbol V denotes the group administered with vehicle only. *P<0.05 (as compared to the group administered with vehicle only).
as §7

mouse = test: Acute toxicity (LD50) in mouse; conditions: oral and intraperitoneal
[9] = Acute toxicity (LD50) in mouse; conditions: in vivo
[10] = cited from earlier work
[11] = 100 to 400 mg/kg s.c., 60 minutes after administration

For `N[C@H](C(=O)O)[C@H](O)c1ccc(O)c(O)c1` [L-threo-DOPS], the “antinociceptive action in presence of benserazide” value (mice [1]; benserazide 25 μg/mouse i.c.v.) was “potently inhibited”, the “antinociceptive action in presence of benserazide” value (mice [1]; benserazide 1 mg/kg s.c.) was “did not give any significant effect” and the “antinociceptive action in presence of naloxone (kaolin-induced writhing)” value (mice [2]) was “hardly affected by morphine antagonist, naloxone”. The “time after administration at which significantly prolonged tail flick latency was observed” value (mice [3]; 400 mg/kg s.c.) was no less than 40 min, the “time of maximum tail flick latency” value (mice [3]; 400 mg/kg s.c.) was “one” and the tail flick latency (mice [3]; 400 mg/kg s.c., 40 or more minutes after administration) was “significantly prolonged latency”. For the same molecule, the “tail flick latency, significance of effect” value (mice [3]; 400 mg/kg s.c., 2 hours after administration) was “no significant effect was observed”, the “antinociceptive action, dose dependence (tail flick)” value (mice [3]; [11]) was “dose-dependent in the range of 100 to 400 mg/kg” and the “antinociceptive action, kaolin-induced writhing” value (mice [4]; 200 mg/kg s.c.) was “significant antinociceptive action”. For the same molecule, the “count of kaolin-induced writhing response” value (mice [4]; 200 mg/kg s.c.) was “decreased to the half”, the “decrease in writhing count” value (mice [4]; 200 mg/kg s.c., 30 minutes after administration) was “the observed decrease was insignificant” and the “decrease in writhing count” value (mice [4]; 200 mg/kg s.c., 2 hours after administration) was “the observed decrease was insignificant”. For the same molecule, the “effect on writhing, dose dependence” value (mice [4]; [11]) was “dose-dependent in the range of 100 to 400 mg/kg”, the “effectiveness by oral administration” value (mice [5]; oral) was “also effective when orally administered” and the “time after administration at which significant effect was observed” value (mice [5]; oral, 200, 400 and 800 mg/kg) was no less than 40 min. The “time of maximum antinociceptive effect” value (mice [5]; oral, 200, 400 and 800 mg/kg) was 60 min, the “antinociceptive action, dose dependence (oral tail flick)” value (mice [5]; oral, 200 to 800 mg/kg) was “dose-dependently” and the “inhibitory effect of phentolamine on L-threo-DOPS-induced prolongation of latency” value (mice [6]; L-threo-DOPS 400 mg/kg s.c., phentolamine 0.1 μg/mouse i.c.v.) was “also observed”. For the same molecule, the “prolongation of latency by L-threo-DOPS in presence of phentolamine” value (mice [6]; L-threo-DOPS 400 mg/kg s.c., phentolamine 1 μg/mouse i.c.v.) was “almost completely inhibited”, the “antinociceptive action of L-threo-DOPS in presence of phentolamine, right graph of FIG. 5” value (mice [6]; L-threo-DOPS 400 mg/kg s.c., phentolamine 1 μg/mouse, printed intracerebralventricularly (right graph)) was “partially but significantly inhibited” and the “antinociceptive action in presence of naloxone (tail flick)” value (mice [7]; L-threo-DOPS 400 mg/kg, naloxone 1 mg/kg s.c., 60 minutes) was “hardly affected by morphine antagonist, naloxone”. For the same molecule, the “type of analgesic activity” value (mice [7]) was “non-narcotic analgesic activity; also recorded: non-opiate type antinociceptive action”, the “effect of increased dose in formalin test” value (mice [8]; 400 mg/kg s.c., not shown in graphs) was “no better effect was obtained” and the “time required for nociceptive reaction (licking and biting), Phase I” value (mice [8]; 100 to 200 mg/kg s.c., 0-5 minutes after formalin) was “did not affect the time required for the nociceptive reaction”. For the same molecule, the “time required for nociceptive reaction (licking and biting), Phase II” value (mice [8]; 100 to 200 mg/kg s.c., 10-30 minutes after formalin) was “dose-dependently inhibited the reaction”.
For `Cc1ccc(N(CC2=NCCN2)c2cccc(O)c2)cc1` [phentolamine], the “tail flick latency, phentolamine alone” value (mice [6]; phentolamine 1 μg/mouse i.c.v.) was “did not affect the latency”.
For `N[C@H](C(=O)O)[C@H](O)c1ccc(O)c(O)c1` (relative stereo) [threo-DOPS, threo-3-(3,4-dihydroxyphenyl)serine], the toxicity (mouse) was “extremely weak toxicity”, the LD50 ([9]; ip) was roughly 10000 mg/kg and the LD50 ([9]; po) was no less than 10000 mg/kg. For the same molecule, the “analgesic effect in tail-flick test (summary)” value (mice [3]; s.c., mice) was “exhibits the analgesic effect dose-dependently”, the “analgesic effect in kaolin-induced writhing test (summary)” value (mice [4]; s.c. and oral, mice) was “dose- dependently observed” and the “analgesic effect in presence of phentolamine (summary)” value (mice [6]; adrenaline blocker phentolamine administered in the brain) was “suppressed”. The “type of analgesic activity” value (mice [7]) was “non-narcotic”, the “analgesic effect in presence of naloxone (summary)” value (mice [7]; morphine antagonist naloxone, tail flick and kaolin tests) was “not antagonized by morphine antagonist, naloxone” and the fate after administration ([10]; known, U.S. Pat. No. 4,497,826) was “transported to a brain that is a site on which threo-DOPS acts, and then decarboxylated therein into a corresponding noradrenaline”. For the same molecule, the “transportation into brain in combination with decarboxylase inhibitor” value ([10]; with decarboxylase inhibitor, J. Pharm. Pharmacol., 1981, 33, 772-777) was “can be accelerated” and the “analgesic effect in formalin test (summary)” value (mice [8]; s.c. and oral, mice) was “dose- dependently observed”.
